# Reference: patent publication US20090099020A1, “Triazole-Based Fungicidal Mixtures” (BADF Aktiengesellschaft, priority 2005, published 2009)
# Test system: Botrytis cinerea
# Assay: Activity against the gray mold pathogen Botrytis cinerea in the microtiter test (Botrci)
# Format: cell-based
# Conditions: single active, day 7 after inoculation
# Description: The expected efficacies of active compound combinations were determined using Colby's formula (Colby, S. R. “Calculating synergistic and antagonistic responses of herbicide combinations”, Weeds, 15, 20-22, 1967) and compared with the observed efficacies.
# E=x+y−x·y/100 • E expected efficacy, expressed in % of the untreated control, when using the mixture of the active compounds A and B at the concentrations a and b • x efficacy, expressed in % of the untreated control, when using the active compound A at the concentration a • y efficacy, expressed in % of the untreated control, when using the active compound B at the concentration b
# The active compounds were formulated separately as a stock solution having a concentration of 10 000 ppm in DMSO.
# The active compound epoxiconazole was used as a commercial formulation.
# Use example No. 1—Activity against the gray mold pathogen Botrytis cinerea in the microtiter test (Botrci)
# The stock solution is pipetted onto a microtiter plate (MTP) and diluted to the stated active compound concentration using a malt-based aqueous nutrient medium for fungi. An aqueous spore suspension of Botrytis cinerea was then added. The plates were placed in a water vapor-saturated chamber at temperatures of 18° C. Using an absorption photometer, the MTPs were measured at 405 nm on day 7 after the inoculation. The measured parameters were compared to the growth of the active compound-free control variant and the fungus- and active compound-free blank value to determine the relative growth in % of the pathogens in the individual active compounds.
# The visually determined values for the percentage of infected leaf area were initially converted into a mean value and then converted into efficacies in % of the untreated control. An efficacy of 0 means the same degree of infection as in the untreated control, an efficacy of 100 means 0% infection. The expected efficacies for active compound combinations were determined using Colby's formula (Colby, S. R. (Calculating synergistic and antagonistic responses of herbicide combinations”, Weeds, 15, pp. 20-22, 1967) and compared to the observed efficacies.
smiles,measurement,setting,value
"Fc1ccc(C2(Cn3cncn3)OC2c2ccccc2Cl)cc1 (stereo not shown) [Epoxiconazole, epoxiconazole]",Observed effect (%),0.016 ppm,15%
same,Observed effect (%),0.063 ppm,48%
"O=c1c2cc(F)ccc2nc(-n2cncn2)n1-c1ccc(Cl)cc1Cl [Fluquinconazole, fluquinconazole]",Observed effect (%),0.004 ppm,0%
same,Observed effect (%),0.25 ppm,0%
